Each block holds one molecule with its values, some of them ahead of it.
Tests used:
Rattus norvegicus [1] = experiment: AUC (0 to t) in Sprague Dawley rat assessed as 6-Phenyl-5-[4-(qumolm-2-ylmethoxy)phenyl]pyridm-2(1H)-one at 11.04 mg/kg, po measured up to 8 hrs; format: ADME, organism-based; set-up: time < 8 hr, dose 11.04 mg/kg, route oral; settings: in vivo
Rattus norvegicus [2] = experiment: Cmax in Sprague Dawley rat assessed as 6-Phenyl-5-[4-(qumolm-2-ylmethoxy)phenyl]pyridm-2(1H)-one at 11.04 mg/kg, po measured up to 8 hrs; format: ADME, organism-based; set-up: dose 11.04 mg/kg, route oral; settings: in vivo
Rattus norvegicus [3] = experiment: Tmax in Sprague Dawley rat assessed as 6-Phenyl-5-[4-(qumolm-2-ylmethoxy)phenyl]pyridm-2(1H)-one at 11.04 mg/kg, po measured up to 8 hrs; format: ADME, organism-based; settings: in vivo
Rattus norvegicus [4] = experiment: AUC (0 to t) in Sprague Dawley rat assessed as 6-(4-Fluorophenyl)-5-[4-quinolin-2-ylmethoxy)phenyl]-pyridine-2(1H)-one at 11.04 mg/kg, po measured after 8hrs; format: ADME, organism-based; settings: in vivo
Rattus norvegicus [5] = experiment: Tmax in Sprague Dawley rat assessed as 6-(4-Fluorophenyl)-5-[4-quinolin-2-ylmethoxy)phenyl]-pyridine-2(1H)-one at 11.04 mg/kg, po measured after 8hrs; format: ADME, organism-based; settings: in vivo
Rattus norvegicus [6] = experiment: Cmax in Sprague Dawley rat assessed as 6-(4-Fluorophenyl)-5-[4-quinolin-2-ylmethoxy)phenyl]-pyridine-2(1H)-one at 11.04 mg/kg, po measured up to 8 hrs; format: ADME, organism-based; set-up: dose 11.04 mg/kg, route oral; settings: in vivo
Cynomolgus monkey [7] = experiment: AUC (0 to 24 hrs) in cynomolgus monkey assessed as 6-(4-Fluorophenyl)-5-[4-quinolin-2-ylmethoxy)phenyl]-pyridine-2(1H)-one at 11.04 mg/kg, po; format: ADME, organism-based, Macaca fascicularis; set-up: time < 24 hr, dose 11.04 mg/kg, route oral; settings: in vivo
Canis familiaris [8] = experiment: AUC (0 to 24 hrs) in Beagle dog assessed as 6-(4-Fluorophenyl)-5-[4-quinolin-2-ylmethoxy)phenyl]-pyridine-2(1H)-one at […], iv; format: ADME, organism-based, Canis lupus familiaris; set-up: time < 24 hr, dose 1.1 mg/kg, route intravenous; settings: in vivo
Canis familiaris [9] = experiment: Tmax in Beagle dog assessed as 6-(4-Fluorophenyl)-5-[4-quinolin-2-ylmethoxy)phenyl]-pyridine-2(1H)-one at 11.04 mg/kg, po; format: ADME, organism-based, Canis lupus familiaris; settings: in vivo
Rattus norvegicus [10] = experiment: AUC (0 to 24 hrs) in Sprague Dawley rat assessed as 6-(4-Fluorophenyl)-5-[4-quinolin-2-ylmethoxy)phenyl]-pyridine-2(1H)-one at […], iv; format: ADME, organism-based; set-up: dose 1.1 mg/kg, time < 24 hr, route intravenous; settings: in vivo
Cynomolgus monkey [11] = experiment: Cmax in cynomolgus monkey assessed as 6-(4-Fluorophenyl)-5-[4-quinolin-2-ylmethoxy)phenyl]-pyridine-2(1H)-one at 11.04 mg/kg, po; format: ADME, organism-based, Macaca fascicularis; set-up: dose 11.04 mg/kg, route oral; settings: in vivo
Cynomolgus monkey [12] = experiment: AUC (0 to 24 hrs) in cynomolgus monkey assessed as 6-(4-Fluorophenyl)-5-[4-quinolin-2-ylmethoxy)phenyl]-pyridine-2(1H)-one at […], iv; format: ADME, organism-based, Macaca fascicularis; set-up: time < 24 hr, dose 1.1 mg/kg, route intravenous; settings: in vivo
Cynomolgus monkey [13] = experiment: Tmax in cynomolgus monkey assessed as 6-(4-Fluorophenyl)-5-[4-quinolin-2-ylmethoxy)phenyl]-pyridine-2(1H)-one at 11.04 mg/kg, po; format: ADME, organism-based, Macaca fascicularis; settings: in vivo
Canis familiaris [14] = experiment: AUC (0 to 24 hrs) in Beagle dog assessed as 6-(4-Fluorophenyl)-5-[4-quinolin-2-ylmethoxy)phenyl]-pyridine-2(1H)-one at 11.04 mg/kg, po; format: ADME, organism-based, Canis lupus familiaris; set-up: dose 11.04 mg/kg, time < 24 hr, route oral; settings: in vivo
Canis familiaris [15] = experiment: Cmax in Beagle dog assessed as 6-(4-Fluorophenyl)-5-[4-quinolin-2-ylmethoxy)phenyl]-pyridine-2(1H)-one at 11.04 mg/kg, po; format: ADME, organism-based, Canis lupus familiaris; set-up: dose 11.04 mg/kg, route oral; settings: in vivo
[16] = Drug level in intestinal microsomes (unknown origin) treated with 6-(4-Fluorophenyl)-5-[4-quinolin-2-ylmethoxy)phenyl]-pyridine-2(1H)-one incubated for 60 mins measured by LC-MS/MS analysis in presence of UDPGA; format: ADME, Intestine
[17] = Drug level in liver microsomes (unknown origin) treated with 6-(4-Fluorophenyl)-5-[4-quinolin-2-ylmethoxy)phenyl]-pyridine-2(1H)-one incubated for 60 mins measured by LC-MS/MS analysis in presence of UDPGA; format: ADME
Rattus norvegicus [18] = experiment: Tmax in Sprague Dawley rat assessed as 6-(2,4-Difluorophenyl)-5-[4-(quinolin-2-ylmethoxy)phenyl]-pyridin-2(1H)-one at 11.04 mg/kg, po measured up to 8 hrs; format: ADME, organism-based; settings: in vivo
Rattus norvegicus [19] = experiment: Cmax in Sprague Dawley rat assessed as 6-(2,4-Difluorophenyl)-5-[4-(quinolin-2-ylmethoxy)phenyl]-pyridin-2(1H)-one at 11.04 mg/kg, po measured up to 8 hrs; format: ADME, organism-based; set-up: dose 11.04 mg/kg, route oral; settings: in vivo
Rattus norvegicus [20] = experiment: AUC (0 to t) in Sprague Dawley rat assessed as 6-(2,4-Difluorophenyl)-5-[4-(quinolin-2-ylmethoxy)phenyl]-pyridin-2(1H)-one at 11.04 mg/kg, po measured up to 8 hrs; format: ADME, organism-based; set-up: dose 11.04 mg/kg, time < 8 hr, route oral; settings: in vivo

- AUC (Cynomolgus monkey [7]): 345 ng·h/mL
- AUC (Canis familiaris [8]): 841 ng·h/mL
- Tmax (Canis familiaris [9]): 1 h
- AUCt (Rattus norvegicus [4]): 2436 ng·h/mL
- AUC (Rattus norvegicus [10]): 492 ng·h/mL
- Cmax (Cynomolgus monkey [11]): 38 ng/mL
- AUC (Cynomolgus monkey [12]): 1314 ng·h/mL
- Tmax (Cynomolgus monkey [13]): 6 h
- AUC (Canis familiaris [14]): 555 ng·h/mL
- Tmax (Rattus norvegicus [5]): 1 h
- Cmax (Canis familiaris [15]): 49 ng/mL
- Cmax (Rattus norvegicus [6]): 372 ng/mL
Compound: CC(=O)Oc1ccc(-c2ccc(OCc3ccc4ccccc4n3)cc2)c(-c2ccc(F)cc2)n1

- Tmax (Rattus norvegicus [18]): 2 h
- Cmax (Rattus norvegicus [19]): 266 ng/mL
- AUCt (Rattus norvegicus [20]): 1764 ng·h/mL
Compound: CC(=O)Oc1ccc(-c2ccc(OCc3ccc4ccccc4n3)cc2)c(-c2ccc(F)cc2F)n1

Continued, molecule first:

Compound: CC(=O)Oc1ccc(-c2ccc(OCc3ccc4ccccc4n3)cc2)c(-c2ccccc2)n1
- AUCt (Rattus norvegicus [1]): 1497 ng·h/mL
- Cmax (Rattus norvegicus [2]): 372 ng/mL
- Tmax (Rattus norvegicus [3]): 1 h

Compound: CN(C)C(=O)Oc1ccc(-c2ccc(OCc3ccc4ccccc4n3)cc2)c(-c2ccc(F)cc2)n1
- AUCt (Rattus norvegicus [4]): 182 ng·h/mL
- Tmax (Rattus norvegicus [5]): 1 h
- Cmax (Rattus norvegicus [6]): 42 ng/mL

Compound: O=C(O)[C@H]1O[C@@H](Oc2ccc(-c3ccc(OCc4ccc5ccccc5n4)cc3)c(-c3ccc(F)cc3)n2)[C@H](O)[C@@H](O)[C@@H]1O
- Drug metabolism [16]: metabolite_detected
- Drug metabolism [17]: metabolite_detected
